The source of these data is patent publication US11497813B2, “Bortezomib conjugates and methods using same” (Frank EBETINO et al., priority 2015, dated 2022).

In one data set the test system is WT mice. The data set can be described thus: Bone volume and osteoblast differentiation in WT mice. The data set is classed as in vivo, mouse.
Data set [1] concerns bone resorption and formation. The data set can be described thus: In vivo dose-response experiments on bone resorption and formation. The text has this:
In vitro testing is also used to examine analogues of BP-Btz1.

Another data set relates to UPS activation. The data set can be described thus: Ub^G76V-GFP reporter cells (GFP+ cells) in osteoclast cultures and on pre-incubated bone slices. The data set is classed as cell-based, mouse. The settings on record: for GFP+ cells on pre-incubated bone slices: BM cells from Ub^G76V-GFP mice on bone slices pre-incubated with compound. The method, then:
(§1) FIG. 5A is a scheme of an exemplary synthesis of compound BP-Btz1. FIG. 5B is a series of images of bone slices pre-incubated with 1 μM BP-Btz1, Btz, or bisphosphonate (BP) overnight. Drug solutions were removed and bone slices were washed with PBS extensively. […] (BM) cells from UB^G76V-GFP mice were cultured on bone slices in the presence of M-CSF and RANKL for 9 days. Top images (a): GFP^+ cells were observed under a fluorescence microscope and GFP signal intensity was quantified. Middle images (b): bone slices were fixed and subjected to TRAP staining for osteoclasts (OCs). OC #/slice were counted. Bottom images (c): cells were removed from slices. Toluidine blue staining was performed and pit areas/slice were counted. FIG. 5C is a series of images of murine BM cells cultured and stained for ALP. FIG. 5D is a series of images of human MSCs cultured and stained for ALP. Murine BM cells and human MSCs were cultured in the OB-inducing medium plus different concentrations of BP-Btz1 or Btz for 4 or 6 days, respectively. Cells were stained for ALP. The ALP^+ areas were measured by Image J. *P<0.05 vs. Btz-treated cells.
1. Ub^G76V-GFP mice in B6 background (Stock #008111, Jax lab) are generated using previously described methods (Lindsten et al., 2003, Nat. Biotech. 21:897-902). The Ub^G76V-GFP transgene was designed with a chicken beta-actin promoter and CMV immediate early enhancer upstream of a GFP fused to a mutant ubiquitin moiety (Ub^G76V), a constitutively active proteasome degradation signal. Following proteasome inhibitor administration, Ub^G76V accumulates and GFP fluorescence is readily apparent. GFP^+ OCs were detected at 4 and 8 hrs after adding Btz to OC cultures, which disappeared at 24 hrs. […] 2. OC formation and resorption assays and data analyses are performed as described herein (FIG. 4) and using previously described methods (Zhang et al., 2014, J. Clin. Invest. 124:3200-3214; Xiu et al., 2014, J. Clin. Invest. 124:297-310). […] The number and area of OCs and resorption pits are assessed. The appearance, intensity and distribution of GFP^+ cells on bone slices and plastic surrounding bone slices during OC formation is observed and recorded. 3. OB differentiation. Third passages of BM stromal cells are used as MPCs, as previously described (Shu et al., 2013, J. Bone Min. Res. 28:1925-1935; Zhang et al., 2014, J. Clin. Invest. 124:3200-3214). MPCs are cultured on plastic plates in OB-inducing medium±BP-Btz conjugates, Btz or BP (0.1-100 nM) for 1-3 wks. Plates are subjected to alkaline phosphatase (ALP) and alizarin red staining, and qPCR analyses. Area of ALP^+ and mineralized bone nodule, and the expression levels of OB marker genes (ALP, osteocalcin, Runx2) are measured. GFP^+ cells during OB differentiation are observed as in OCs. In a parallel experiment, human MSCs (from Lonza) are treated with BP-Btz, Btz, or BP in OB-inducing medium and their effects examined on OB differentiation as show in FIGS. 5C and 5D. 4. Western blot/Ub assays. OCPs or MPCs are treated with a preferred dose of leading BP-Btz, Btz and BP. OCP lysates are subjected to Western blot using α-NF-κB members and TRAF6 Abs. OB lysates are subjected to Western blot with α-ubiquitin, Runx2, or JunB Abs, and Ub assays using UbiQapture matrix (Biomol) to pull down Ub-proteins followed by α-Runx2 and JunB Abs using previously described methods (Zhao et al., 2010, J. Bone Min. Res. 25:1246-1256; Zhao et al., 2011, Stem cells 29:1601-1610).

In the next data set the test system is human MPCs. The data set can be described thus: Osteoblast differentiation of human MPCs/MSCs (ALP staining). Format: cell-based. How it is done:
as §1, with “FIG. 5C is a series of images of murine BM cells cultured and stained for ALP. FIG. 5D is a series of images of human MSCs cultured and stained for ALP. Murine BM cells and human MSCs were cultured in the OB-inducing medium plus different concentrations of BP-Btz1 or Btz for 4 or 6 days, respectively. Cells were stained for ALP.” left out
1. […] Following proteasome inhibitor administration, Ub^G76V accumulates and GFP fluorescence is readily apparent. GFP^+ OCs were detected at 4 and 8 hrs after adding Btz to OC cultures, which disappeared at 24 hrs. […] The number and area of OCs and resorption pits are assessed. The appearance, intensity and distribution of GFP^+ cells on bone slices and plastic surrounding bone slices during OC formation is observed and recorded. […] Area of ALP^+ and mineralized bone nodule, and the expression levels of OB marker genes (ALP, osteocalcin, Runx2) are measured. […]

For the next data set, the system named is OVX mice. The data set can be described thus: OVX-induced bone loss in C57/B6 mice. Format: in vivo, mouse. The method, then:
Ovariectomy was carried out in 10-week-old female C57/B6 mice.
Histomorphometry (FIG. 20A) and biomechanical testing (FIG. 20B) were also done. These experiments were done using C57/B6 mice, 10 w, treatment at 4 w post-OVX for 4 w.

For another data set, the system named is mice. The data set can be described thus: Survival of mice treated with Btz. The data set is classed as in vivo, mouse. The text has this:
BP-Btz is expected to have a higher efficacy on 1) reducing OVX-induced bone loss and 2) promoting fracture healing in aged mice with lesser adverse systemic effects than those of Btz. A critical difference between BP-Btz and Btz is that in vivo BP-Btz brings Btz to bone, thereby exerting its bioactivity locally, while Btz can exert its bioactivity systemically. It is hypothesized that BP-Btz conjugates should have similar or better positive bioactivities than Btz on bone volume, but with a significant reduction in side effects. In humans, the toxicities of Btz include peripheral neuropathy and thrombocytopenis (Weathington and Mallampalli, 2014, J. Clin. Invest. 124:6-12). Little is known the toxicity of Btz in mice. […] Although not wishing to be bound by any particular theory, these adverse effects are thought to be due to the systemic distribution of the drug. Thus, the generation of bone-targeted Btz could meet a critical clinical need, by and increasing the local drug concentration to capitalize on the efficacy of BTz while reducing systemic side effects. Because proteasome inhibitors could increase bone volume in normal and OVX mice, and promote fracture healing in adult mice (Khedgikar et al., 2013, Cell Death Dis. 4:e778; Maseda et al., 2008, Cell Death Differ. 15:600-612), OVX and fracture models are used to examine the efficacy of the leading BP-Btz conjugates on bone. […]

Setting [2] is: OVX C57/B6 mice, treatment at 4 w post-OVX for 4 w.

With `CC(C)C[C@H](NC(=O)[C@H](Cc1ccccc1)NC(=O)c1cnccn1)B1OCCN(CCOC(=O)NC(P(=O)(O)O)P(=O)(O)O)CCO1` [BP-Btz1], in the data set on WT mice (WT mice, FIG. 17), the bone volume entry was “increases bone volume” and the osteoblast differentiation entry was “increases”. The bone resorption result in data set [1] was “inhibits bone resorption”. For the same compound, the bone formation entry in data set [1] (compared with Btz alone) was “stimulates formation at doses lower than effective doses of Btz alone”. The “GFP+ cells on pre-incubated bone slices” value in the data set on UPS activation is recorded as “present”. In addition, in the data set on human MPCs, the osteoblast differentiation result is recorded as “stimulates osteoblast differentiation”. In the data set on OVX mice (setting [2]), the bone mass result was “increases bone mass and strength in OVX mice as effectively as Btz”; the bone strength result was “increases bone mass and strength in OVX mice as effectively as Btz”. Besides, in the data set with OVX mice (OVX mice), the OVX-induced bone loss result was “reduces OVX-induced bone loss” and the osteoblast differentiation entry is “more potently promotes osteoblast differentiation”. Moreover, in the data set on OVX mice (cells from OVX mice), the CFU-ALP colony formation result is “increases CFU-ALP colony formation” and the CFU-F colony formation result is recorded as “increases CFU-F colony formation”.
Regarding `CC(C)C[C@H](NC(=O)[C@H](Cc1ccccc1)NC(=O)c1cnccn1)B(O)O` [Btz, [(1R)-3-methyl-1-[[(2S)-1-oxo-3-phenyl-2[(pyrazinylcarbonyl)amino]propyl]amino]butyl] boronic acid], in the data set with mice (aged mice), the survival rate was determined as 53%. The same compound yielded a survival in the data set with mice (young mice) of 94%. Moreover, in the data set on WT mice (3-m-old mice, 0.6 mg/kg/i.p. at day 1, 3, 5, read at day 10), the bone volume result was “increased bone volume”. The “GFP+ OCs after adding compound to OC cultures” value in the data set on UPS activation (4 and 8 hrs) is “detected”; with UPS activation (24 hrs) it was “disappeared”. Also, the “GFP+ cells on pre-incubated bone slices” value with UPS activation was “not”.
